The results in this text go back to publication PMC7143549, “Anticancer Activities of Meroterpenoids Isolated from the Brown Alga Cystoseira usneoides against the Human Colon Cancer Cells HT-29” (Foods, 2020).

In assay [1] the test system is HT-29 cells. In words: Wound migration assay. Type of assay: cell-based, human. Conditions: 24 h, wound-healing; for inhibition at 10 µg/mL: Homo sapiens, HT-29, read-out: inhibition of cell migration. On the procedure:
For cell migration assay, HT-29 cells were seeded in six-well culture plates and allowed to grow to 80%–90% confluence for the experiment. After aspirating the medium, similar sized wounds were performed in the monolayer cells using a sterile micropipette tip. Wounded monolayer cells were washed three times with PBS to remove cell debris and then replaced with complete McCoy’s medium. HT-29 cells were treated with the AMTs (10 µg/mL for compounds 1, 2, 5, 6, 7, and 8, and 30 µg/mL for compounds 3 and 4) and incubated for 24h. For the image analysis of the effect of each treatment on cell migration, the wounded area was photographed immediately after scratching and after 24 h. The level of cell migration was determined using NIH Image software (Image J 1.44g, Wayne Rasband, USA) and then expressed as a percentage of wound closure area using the equation: Migration rate (%) = [(wound area at 0 h − wound area at 24 h)/wound area at 0 h] × 100%.

The subject of another assay is p-AKT in HT-29 cells. In words: Western blot of phosphorylated AKT. Type of assay: cell-based, human. Conditions: 24 h; 10 and 20 μg/mL for 1, 2, 5, 6, 7, 8; 30 and 60 μg/mL for 3 and 4. On the procedure: (§1) Cells were cultured to 80% confluence at 37 °C. After 24 h of treatment with the compounds (10 and 20 µg/mL for compounds 1, 2, 5, 6, 7, and 8, and 30 and 60 µg/mL for compounds 3 and 4), HT-29 cells were rinsed twice with ice-cold PBS, and then lysed immediately in lysis buffer (250 mM NaCl, 50 mM Tris (pH 7.5), 0.5 mM EDTA, 5 mM EGTA, 8 mM MgCl2, 1 mM PMSF, 0.01 mg/mL pepstatin A, 0.01 mg/mL leupeptin, 0.01 mg/mL aprotinin, 1% Triton X-100). After centrifugation at 12,000 g for 3 min at 4°C to separate the cellular debris, the supernatant was collected and stored at −80°C until use. The protein concentrations were determined using Bio-Rad Protein Assay (BioRad, Richmond, CA, USA), according to the manufacturer’s instructions.
(§2) Equal protein content (50 μg) samples of cell lysates were separated on 10% SDS–polyacrylamide gel and transferred to polyvinylidene difluoride membranes (Hybond-P, Amershan Biosciences, Little Chalfont, UK). The membranes were blocked with 5% (w/v) non-fat dry milk in Tris-buffered saline containing 0.1% Tween-20 buffer (pH 7.4) (TBST) for 1 h at room temperature and incubated with agitation with specific antibodies: anti-pERK1/2 (Cell Signaling; 1:1000), anti-pJNK (Cell Signaling; 1:1000), anti-pAKT (Cell Signaling; 1:1000), anti-β-actin (Sigma-Aldrich; 1:500). Membranes were incubated overnight at 4°C with gentle shaking. The secondary antibody was a peroxidase-conjugated goat anti-mouse or -rabbit antibody (1:10,000; DakoCytomation, Carpinteria, CA, USA). After washing the membrane three times in TBST buffer (10 min), the signals were detected using an enhanced chemiluminescence light-detecting kit (Super-Signal West Pico Chemiluminescent Substrate, Pierce, IL, USA), according to the manufacturer’s instructions and exposed to an X-ray film (GE Healthcare Ltd., Amersham, UK). The protein band densities were analyzed and quantified with a Scientific Imaging Systems (Biophotonics ImageJ Analysis Software, National Institute of Mental Health, Bethesda, MD, USA). β-actin was used to confirm the equal loading and transfer of proteins.

In another assay the test system is p-JNK in HT-29 cells. The assay can be described thus: Western blot of phosphorylated JNK. It is filed as cell-based, human. Particulars: 24 h; 10 and 20 μg/mL for 1, 2, 5, 6, 7, 8; 30 and 60 μg/mL for 3 and 4. The method, then: as §1, §2
Assay [2] concerns HT-29 cells. The assay can be described thus: Cultrex 96 well BME cell invasion assay. Type of assay: cell-based. Particulars: Homo sapiens, 24 h; for inhibition at 10 µg/mL: 10 μg/mL. The method, then:
The invasion activities were measured using Trevigen’s Cultrex® 96 Well Cell Invasion Assays, as previously described. Briefly, about 50 μL of 1X basement membrane extract (BME) in coat buffer was added to each well. After incubation for 4 h at 37 °C in a 5% CO2 atmosphere, the HT-29 cells at 50,000 cells/50μL in serum free McCoy’s medium were added per well to the top chamber containing the tested compound (10 µg/mL for 1, 2, 5, 6, 7, and 8, and 30 µg/mL for compounds 3 and 4). About 150 μL of McCoy’s medium was then added to the lower chamber containing 10% FBS and penicillin/streptomycin as chemoattractants. Cells were allowed to migrate to the lower chamber in a humidified atmosphere containing 5% CO2 at 37 °C for 24 h. Afterwards, top and bottom chambers were aspirated and washed with washing buffer supplemented with the kit. About 100 μL of Cell Dissociation Solution/Calcein-AM was added to each bottom chamber well and incubated for 1 h at 37 °C in CO2 incubator. The cells internalized calcein-AM and the intracellular esterases cleaved the AM moiety to generate free calcein. Fluorescence of the samples was determined at 485 nm excitation, 520 nm emission, using ELISA plate reader (BioTek Instruments, Winooski, VT, USA). The number of cells that had invaded through the BME coat was calculated using a standard curve. Results were expressed as percentage of invasion (%) compared to the control.

The test system of assay [3] is HT-29 human colon carcinoma cells. In words: Sulforhodamine B (SRB) cell viability assay, HT-29. It is filed as cell-based. Particulars: for IC50: Homo sapiens, HT-29, 72 h; for IC50 / IC50 HT-29: colon cancer cells, 72 h of treatment, SRB, mean ± SE of three experiments; for Selectivity Index (SI): IC50 for normal cells CCD 841 CoN / IC50 for cancer cells HT-29. On the procedure: Cell viability was quantified using the Sulforhodamine B assay described by Skehan et al.. Cells were plated with a density of 5 × 10^3 (HT-29) and 1 × 10^4 (CCD 841 CoN) cells/well and allowed to attach at 37 °C in an atmosphere with 5% CO2. After 24 h, the AMTs dissolved in DMSO were added to the cells (final concentrations of 10, 20, 30, and 50 µg/mL and less than 0.05% of DMSO) and the plates were incubated for 72 h. Then, the cells were fixed by adding 50 μL of TCA (50%) to each well and the plates were maintained for 1 h at 4 °C. The plates were washed five times with deionized water, air-dried, and stained for 30 min at room temperature with 100 μL of 0.4% (w/v) SRB prepared in 1% (v/v) acetic acid. The plates were rinsed quickly five times with 1% acetic acid to remove unbound dye, followed by air-drying. The bound dye was solubilized in 2 mM Tris base (100 μL/well) for 5 min. Optical densities were read on a microplate reader (Spectrophotometer LabsystemsMultiskan EX, λ 492 nm). Three independent assays were conducted, each one in duplicate. A standard curve was constructed for each experiment and used for converting the measured optical density values into numbers of viable cells/well. The inhibition rate was used to evaluate the cell viability and its algorithm was the following formula: ((ODcontrol − ODtreatment)/ODcontrol) × 100; OD, optical density. The OD492 for control cells was taken as 100% viability. The half maximal inhibitory concentration (IC50) was calculated. The selectivity index (SI) of each compound was calculated as IC50 of the compound against the CCD 841 CoN normal cell line/IC50 of the same compound against the HT-29 cancer cell line.

Molecules are shown by their SMILES. In brackets after ≈: the same amount, converted by molar mass.

As to `COc1c(C)cc(O)cc1/C=C/C(C)(O)CC(=O)/C=C(\C)CCCC(C)C(=O)/C=C/C(C)(C)O` (centres unmarked) [Compound 8, cystodione B], the inhibition at 10 µg/mL in the assay with HT-29 cells [1] (10 μg/mL) turned out to be 59.1%. For the same molecule, the “expression of p-AKT protein vs control” value in the assay on p-AKT in HT-29 cells is listed as “significantly downregulated”. In addition, the “phospho-JNK level vs control” value with p-JNK in HT-29 cells is given as “decreased phosphorylation”. Besides, in the assay on HT-29 cells [2], the inhibition at 10 µg/mL was more than 40%. Besides, in assay [3], the midpoint of inhibition, the IC50, lay at 9.14 µg/mL (≈ 19.3 µM); the “Selectivity Index (SI)” value was found to be 3.51; the “IC50 HT-29” value was 9.08 ± 1.04 µg/mL (≈ 19.2 µM).

For the molecule `COc1c(C)cc(O)cc1C/C=C(\C)CC(=O)/C=C(\C)CCCC(C)=O` [Compound 3, cystomexicone B], the “inhibition of cell migration” value with HT-29 cells [1] (30 μg/mL (methods, Figure 5B)) is recorded as “no significant effects”. For the same molecule, the “expression of p-AKT protein vs control” value in the assay on p-AKT in HT-29 cells is “significantly downregulated”. In addition, the “phospho-JNK level vs control” value in the assay with p-JNK in HT-29 cells is given as “decreased phosphorylation”. Also, the inhibition at 30 µg/mL in the assay on HT-29 cells [2] (30 μg/mL (methods, Figure 5C)) is more than 40%. In assay [3], the midpoint of inhibition, the IC50, lay at 36.9 µg/mL (≈ 103 µM); the “Selectivity Index (SI)” value is reported as more than 1.45; the “IC50 HT-29” value is 34.34 ± 1.81 µg/mL (≈ 95.8 µM).

In the case of `COc1c(C)cc(O)cc1C/C=C(\C)CC(=O)/C=C(/C)CCCC(C)(O)C(=O)/C=C/C(C)(C)O` (centres unmarked) [Compound 1, usneoidone Z], the inhibition at 10 µg/mL in the assay with HT-29 cells [1] (10 μg/mL) is 28.4%. Also, in the assay on p-AKT in HT-29 cells, the “expression of p-AKT protein vs control” value is listed as “significantly downregulated”. This molecule also gave an inhibition at 10 µg/mL in the assay with HT-29 cells [2] of more than 40%. Besides, in assay [3], half-maximal inhibition (IC50) required 8.81 ± 1.55 µg/mL (≈ 18.6 µM) and the “Selectivity Index (SI)” value stood at 5.26.

As to `COc1c(C)cc(O)cc1C/C=C(\C)CC(=O)/C=C(\C)CCCC(C)(O)C(=O)/C=C/C(C)(C)O` (centres unmarked) [Compound 2, 11-hydroxy-1′-O-methylamentadione], the “inhibition of cell migration” value with HT-29 cells [1] (10 μg/mL) is reported as “no significant effects”. In addition, the “expression of p-AKT protein vs control” value in the assay with p-AKT in HT-29 cells is listed as “significantly downregulated”. In addition, the “phospho-JNK level vs control” value in the assay with p-JNK in HT-29 cells is recorded as “decreased phosphorylation”. Besides, in assay [3], half-maximal inhibition (IC50) required 9.14 ± 0.23 µg/mL (≈ 19.3 µM) and the “Selectivity Index (SI)” value is 2.34.

Take `COc1c(C)cc(O)cc1/C=C/C(C)(O)CC(=O)/C=C(/C)CCCC(C)C(=O)/C=C/C(C)(C)O` (centres unmarked) [Compound 7, cystodione A]: in the assay on HT-29 cells [1] (10 μg/mL), the inhibition at 10 µg/mL came out at 30.7%. In addition, the “expression of p-AKT protein vs control” value in the assay with p-AKT in HT-29 cells was “significantly downregulated”. Also, the “phospho-JNK level vs control” value in the assay with p-JNK in HT-29 cells is reported as “decreased phosphorylation”. Moreover, in assay [3], half-maximal inhibition (IC50) was put at 14 ± 1.33 µg/mL (≈ 29.6 µM) and the “Selectivity Index (SI)” value is on record as more than 3.57.
